The text below walks through data of patent US20030220310A1, “Epoxy-steroidal aldosterone antagonist and calcium channel blocker combination therapy for treatment of congestive heart failure” (priority 2003, published 2003).

The nature of data set [1]: Thermogravimetric analysis of solvates (desolvation). The data set is classed as physicochemical. As to conditions: eplerenone crystalline solvate; extrapolated from final solvent weight loss step, TGA, 10° C./minute, nitrogen purge. The method, then: Thermogravimetric analysis of solvates was performed using a TA Instruments TGA 2950 thermogravimetric analyzer. Samples were placed in an unsealed aluminum pan under nitrogen purge. Starting temperature was 25° C. with the temperature increased at a rate of about 10° C./minute.

The nature of data set [2]: Single crystal X-ray structure, unit cell parameters. Type of data set: physicochemical. As to conditions: for Isostructural to Methyl Ethyl ketone Solvate?: eplerenone crystalline solvate; for R: crystal structure determination; for Volume / ρ (calculated): unit cell; for Z / a / b / c / α / β / γ: unit cell parameter. The text has this:
Tables 8, 9 and 10 below summarize the unit cell parameters determined for Form H, Form L, and several solvated crystalline forms. […]

Data set [3] has as its system myocardial fibrosis in animal models. As to conditions: cited from earlier work.

Consider `CCCCO` [n-Butanol], for which the “Desolvation Temperature” value in data set [1] was 103 °C. The “Isostructural to Methyl Ethyl ketone Solvate?” value (from here on “Isostructural”) in data set [2] is “Yes”.
For `CCC(C)=O` [Methyl Ethyl Ketone], the “Desolvation Temperature” value in data set [1] is 89 °C.
Take `CC(=O)OCC(C)C` [Isobutyl Acetate]: the “Desolvation Temperature” value in data set [1] is 112 °C. Moreover, in data set [2], the “Isostructural” value is listed as “Yes”.
As to `CC(=O)O` [Acetic Acid], the “Isostructural” value in data set [2] is recorded as “Yes”.
Take `COC(=O)[C@@H]1CC2=CC(=O)CC[C@]2(C)C2=CC[C@@]3(C)C(CCC34CCC(=O)O4)C21` (stereo partly drawn) [9,11 olefin]: in data set [2], the R turned out to be 0.0764, the Volume was 2069.3 Å, the “ρ (calculated)” value was 1.279 g/mL and the Z amounted to 4. Further, in data set [2], the a is on record as 20.90 Å Å, the b was 15.74 Å Å, the c is reported as 6.29 Å Å and the α is given as 90°. For the same compound, in data set [2], the β stood at 90° and the γ is 90°.
As to `C1CCOC1` [Tetrahydrofuran], the “Desolvation Temperature” value in data set [1] was 136 °C. Moreover, in data set [2], the “Isostructural” value is reported as “Yes”.
In the same order, the values of `CCOC(=O)CC` [Ethyl Propionate] are 122 °C and “Yes”.
Turning to `CC(=O)S[C@@H]1CC2=CC(=O)CC[C@]2(C)[C@H]2CC[C@@]3(C)[C@@H](CC[C@@]34CCC(=O)O4)[C@H]12` [spironolactone], the myocardial fibrosis entry in data set [3] is reported as “prevents myocardial fibrosis”.
On to `CC(C)=O` [Acetone], for which the “Desolvation Temperature” value in data set [1] is 117 °C. In data set [2], the “Isostructural” value is listed as “Yes”.
Consider `CCCOC(C)=O` [Propyl Acetate], for which, in data set [1], the “Desolvation Temperature” value is 130 °C. The “Isostructural” value in data set [2] is “Yes”.
Regarding `Cc1ccccc1` [Toluene], the “Desolvation Temperature” value in data set [1] was 83 °C. The “Isostructural” value in data set [2] is given as “Yes”.
On to `COC(=O)[C@@H]1CC23O[C@@H]2C(=O)CC[C@]3(C)[C@@]23OC2C[C@@]2(C)C(CCC24CCC(=O)O4)C13` (stereo partly drawn) [diepoxide, 7-methyl hydrogen 4α,5α:9α,11α-diepoxy-17-hydroxy-3-oxo-17α-pregnane-7α,21-dicarboxylate, γ-lactone], for which, in data set [2], the R is on record as 0.0762, the Volume amounted to 2119.0 Å, the “ρ (calculated)” value was 1.349 g/mL and the Z worked out at 4. Moreover, in data set [2], the a is recorded as 21.328 Å Å, the b is reported as 16.16 Å Å, the c is 6.15 Å Å and the α is on record as 90°. Besides, in data set [2], the β stood at 90° and the γ amounted to 90°.
`CC(=O)OC(C)(C)C` [t-Butyl Acetate]: in data set [1], the “Desolvation Temperature” value was 109 °C. In data set [2], the “Isostructural” value is on record as “Yes”.
In the same order, the values of `CCO` [Ethanol] are 166 °C and “Yes”.
In the same order, the values of `CC(C)O` [Isopropanol] are 121 °C and “Yes”.
On the same counts, the results for `COC(C)=O` [Methyl Acetate] are 103 °C and “Yes”.
Take `ClC(Cl)Cl` [Chloroform]: the “Desolvation Temperature” value in data set [1] is 125 °C. In data set [2], the “Isostructural” value was “Yes”.
As for `CC(O)CO` (stereo not drawn) [Propylene Glycol], the “Desolvation Temperature” value in data set [1] was 188 °C. Moreover, in data set [2], the “Isostructural” value is “Yes”.
On the same counts, the results for `CCCCCCCCO` [n-Octanol] are 116 °C and “Yes”.
On the same counts, the results for `CCCCOC(C)=O` [Butyl Acetate] are 108 °C and “Yes”.
As for `CCCO` [n-Propanol], the “Isostructural” value in data set [2] is given as “Yes”.
